Target: T1, GluN1/GluN2A receptors (Rattus norvegicus, UniProt P35439+Q00959)
T1 construct: expressed in transfected cells; host or cells: HEK293
Experiment: Patch-clamp inhibition of GluN1/GluN2A receptors in transfected HEK293 cells
Type: cell-based
Conditions: 1 mM glutamate and 10 μM glycine
Method: FIGURE 7 Concentration–response properties of compound 6 on GluN1/GluN2A-D receptors. (A) Examples of traces obtained from HEK293 cells transfected with cDNAs encoding GluN1/GluN2A, GluN1/GluN2B, GluN1/GluN2C, and GluN1/GluN2D receptors. Agonists (1 mM glutamate and 10 μM glycine) were applied alone and simultaneously with compound 6 (10 μM) to evaluate the inhibitory effect of compound 6 on NMDAR mediated currents (duration of glutamate and steroid application is indicated by filled and open bars, respectively). (B) Concentration–response curves for the compound 6 effect at GluN1/GluN2A-D receptors. Data points are averaged values of normalized responses from at least four HEK293 cells. Error bars represent SD.
Electrophysiological experiments were performed on HEK293 cells transfected with plasmids encoding rat GluN1-1a/GluN2A-D and GFP genes as described previously, ([Petrovic et al., 2005]; [Cais et al., 2008]; [Korinek et al., 2010]) or on primary hippocampal neurons prepared from P0–P1 rats, plated on collagen/poly-D-lysine-coated glass coverslips at a density of ∼50,000 cells/cm^2, and grown in Neurobasal A medium with B27 Supplement (Gibco). Agonist-induced responses were voltage-clamped at a holding potential of −60 mV. […] Agonist-induced responses were low-pass filtered at 2 kHz, digitally sampled at 5 kHz, and analyzed with pClamp software version 10.5 (Molecular Devices). […]

T1 sequence (Q00959 23-1464, other chains not shown): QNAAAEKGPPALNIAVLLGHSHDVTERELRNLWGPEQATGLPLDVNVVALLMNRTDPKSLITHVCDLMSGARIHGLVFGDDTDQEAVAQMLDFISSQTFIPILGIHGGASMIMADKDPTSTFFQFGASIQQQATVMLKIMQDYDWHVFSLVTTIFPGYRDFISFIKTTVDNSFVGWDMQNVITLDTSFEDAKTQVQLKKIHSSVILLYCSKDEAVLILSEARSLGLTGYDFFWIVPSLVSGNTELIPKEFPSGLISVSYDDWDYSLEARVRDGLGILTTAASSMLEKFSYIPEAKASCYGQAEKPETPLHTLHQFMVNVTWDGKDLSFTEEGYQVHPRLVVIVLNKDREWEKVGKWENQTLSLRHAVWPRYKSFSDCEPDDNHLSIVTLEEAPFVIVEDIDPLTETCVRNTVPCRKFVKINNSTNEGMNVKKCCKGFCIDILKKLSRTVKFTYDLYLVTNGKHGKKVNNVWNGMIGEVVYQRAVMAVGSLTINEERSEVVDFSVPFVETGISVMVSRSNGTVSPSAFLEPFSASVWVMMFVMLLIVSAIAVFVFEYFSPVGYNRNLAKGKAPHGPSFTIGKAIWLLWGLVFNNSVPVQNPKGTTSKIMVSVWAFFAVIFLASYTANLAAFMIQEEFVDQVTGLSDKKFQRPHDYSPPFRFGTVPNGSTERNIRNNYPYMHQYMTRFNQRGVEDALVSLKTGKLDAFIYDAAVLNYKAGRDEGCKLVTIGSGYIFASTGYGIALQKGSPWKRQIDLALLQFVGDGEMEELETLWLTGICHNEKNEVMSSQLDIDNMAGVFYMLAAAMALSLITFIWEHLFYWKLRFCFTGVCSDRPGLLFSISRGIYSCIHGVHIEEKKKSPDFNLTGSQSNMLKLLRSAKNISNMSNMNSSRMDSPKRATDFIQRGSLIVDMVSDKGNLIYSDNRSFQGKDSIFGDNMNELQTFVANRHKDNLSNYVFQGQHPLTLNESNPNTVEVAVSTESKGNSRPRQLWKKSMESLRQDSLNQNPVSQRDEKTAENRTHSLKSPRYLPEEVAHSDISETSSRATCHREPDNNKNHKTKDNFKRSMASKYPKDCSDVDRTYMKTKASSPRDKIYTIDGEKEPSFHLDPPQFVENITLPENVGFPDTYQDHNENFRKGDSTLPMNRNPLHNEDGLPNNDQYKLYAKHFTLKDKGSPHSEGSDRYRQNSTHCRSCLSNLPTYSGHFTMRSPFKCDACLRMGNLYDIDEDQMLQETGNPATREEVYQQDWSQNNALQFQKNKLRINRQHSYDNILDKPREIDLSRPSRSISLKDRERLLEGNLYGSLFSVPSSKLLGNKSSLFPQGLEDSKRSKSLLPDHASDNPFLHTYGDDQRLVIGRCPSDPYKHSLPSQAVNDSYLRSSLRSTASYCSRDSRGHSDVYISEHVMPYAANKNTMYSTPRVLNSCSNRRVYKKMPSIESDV

## C[C@@]12CCC[C@H]1[C@@H]1CC[C@@H]3C[C@H](NC(=O)[C@@H](N)CC(=O)O)CC[C@]3(C)[C@H]1CC2 [Compound 6, (S)-3-amino-4-(((3R,5R,8S,9S,10S,13S,14S)-10,13-dimethylhexadecahydro-1H-cyclopenta[a]phenanthren-3-yl)amino)-4-oxobutanoic acid]
  h ± SD (apparent Hill coefficient): 1.3 ± 0.1
concentration-response
  IC50: 6.5 ± 0.7 µM

From publication PMC6240685, “Strong Inhibitory Effect, Low Cytotoxicity and High Plasma Stability of Steroidal Inhibitors of N-Methyl-D-Aspartate Receptors With C-3 Amide Structural Motif” (Frontiers in Pharmacology, 2018)
